The structures appear in SMILES notation. Starred links: 1 amine or outer side, 2 acyl side, 3 side chain; linkers in the order of their positions; H or OH if unused. Positions of bridges follow the written chain, without caps; N, C: chain ends. Non-standard residues stand in square brackets, D forms with d. Residues, ends and D or L forms follow the SMILES beside them. ξ: configuration not given here. *: point of attachment. NMeF = CN[C@@H](Cc1ccccc1)C(=O)O; NMeGABA = CN(CCCC(=O)[*:2])[*:1]; dNMeF = CN[C@H](Cc1ccccc1)C(=O)O; hPhe = N[C@@H](CCc1ccccc1)C(=O)O; NMeL = CN[C@@H](CC(C)C)C(=O)O; NMeAbu = CC[C@H](NC)C(=O)O; NMeS = CN[C@@H](CO)C(=O)O; NMeA = CN[C@@H](C)C(=O)O; Piperidide = C1CCN(*)CC1; Abu = CC[C@H](N)C(=O)O; Isopentyl = CC(C)CC*; ξS = NC(CO)C(=O)O; Sar = CNCC(=O)O; tBu = CC(C)(C)*

One data set can be described thus: Caco-2 membrane permeability, improved method as used in the following Examples (96-well, 20 to 24 h preincubation). The format is in vitro ADME. To be noted: human, Caco-2, Caco-2. Put shortly: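 Caco-2 monolayers were grown three weeks and preincubated 20–24 h at 37 °C with compound in DMEM+FaSSIF (1% DMSO) apically. The assay then used compound in FaSSIF/HBSS (1% DMSO, pH 6.0) apically and HBSS with 4% BSA (pH 7.4) basally. Basal samples were taken at 180 min for LC/MS, and Papp (cm/sec) was calculated.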
`CC(C)CCOC[C@@H]1NC(=O)[C@H](CC(C)C)N(C)C(=O)CN(C)C(=O)[C@H]([C@@H](C)O)NC(=O)[C@H](CC(C)C)N(C)C(=O)[C@H](CC(C)C)NC(=O)[C@H](Cc2ccccc2)N(C)C(=O)[C@@H](C)NC(=O)C[C@@H](C(=O)N2CCCCC2)NC(=O)[C@H](CC(C)C)N(C)C(=O)[C@@H](Cc2ccccc2)N(C)C1=O` [pd300] ([dA][NMeF]L[NMeL]T[Sar][NMeL]S(Isopentyl)[dNMeF][NMeL]D-Piperidide; lactam N-11): the Papp A→B at 180 min was found to be 1.9 ×10⁻⁶ cm/s.
The compound `CC(C)CCOC[C@@H]1NC(=O)[C@H](Cc2ccccc2)N(C)C(=O)[C@@H](C)NC(=O)C[C@@H](C(=O)N2CCCCC2)NC(=O)[C@H](CC(C)C)N(C)C(=O)[C@H](Cc2ccccc2)N(C)C(=O)[C@H](COC(C)(C)C)NC(=O)[C@H](CC(C)C)N(C)C(=O)CN(C)C(=O)[C@H]([C@@H](C)O)NC(=O)[C@H](CC(C)C)N(C)C1=O` [pd301] ([dA][NMeF]S(Isopentyl)[NMeL]T[Sar][NMeL]S(tBu)[NMeF][NMeL]D-Piperidide; lactam N-11) gave a Papp A→B at 180 min of 1.7 ×10⁻⁶ cm/s.
`CC[C@H](C)[C@@H]1NC(=O)[C@H](CC(C)C)N(C)C(=O)CCCN(C)C(=O)C[C@@H](C(=O)N2CCCCC2)NC(=O)[C@H](CC(C)C)N(C)C(=O)[C@H](C)N(C)C(=O)[C@H]([C@@H](C)O)NC(=O)[C@H](CC(C)C)N(C)C(=O)[C@H](COCCC(C)C)NC(=O)[C@H](Cc2ccccc2)N(C)C(=O)[C@H](Cc2ccccc2)N(C)C1=O` [pd302] ([NMeGABA][NMeL]I[NMeF][NMeF]S(Isopentyl)[NMeL]T[NMeA][NMeL]D-Piperidide; lactam N-11) had a Papp A→B at 180 min of 1.4 ×10⁻⁶ cm/s.
Take `CC(C)CCOC[C@@H]1NC(=O)[C@H](CC(C)C)N(C)C(=O)CCCN(C)C(=O)C[C@@H](C(=O)N2CCCCC2)NC(=O)[C@H](CC(C)C)N(C)C(=O)[C@H](C)N(C)C(=O)[C@H]([C@@H](C)O)NC(=O)[C@H](CC(C)C)N(C)C(=O)[C@H](COC(C)(C)C)NC(=O)[C@H](Cc2ccccc2)N(C)C(=O)[C@H](Cc2ccccc2)N(C)C1=O` [pd303] ([NMeGABA][NMeL]S(Isopentyl)[NMeF][NMeF]S(tBu)[NMeL]T[NMeA][NMeL]D-Piperidide; lactam N-11): the Papp A→B at 180 min stood at 1 ×10⁻⁶ cm/s.
Compound `CC(C)CCOC[C@@H]1NC(=O)[C@H](C)N(C)C(=O)C[C@@H](C(=O)N2CCCCC2)NC(=O)[C@H](CC(C)C)N(C)C(=O)CN(C)C(=O)[C@H]([C@@H](C)O)NC(=O)[C@H](CC(C)C)N(C)C(=O)[C@H](Cc2ccccc2)N(C)C(=O)[C@H](C(C)C)NC(=O)[C@H](Cc2ccccc2)N(C)C(=O)[C@H](CC(C)C)N(C)C1=O` [pd304] ([NMeA]S(Isopentyl)[NMeL][NMeF]V[NMeF][NMeL]T[Sar][NMeL]D-Piperidide; lactam N-11) came in with a Papp A→B at 180 min of 2.2 ×10⁻⁶ cm/s.
In the case of `CC(C)CCOCC1NC(=O)[C@H](CC(C)C)N(C)C(=O)[C@H](Cc2ccccc2)N(C)C(=O)CN(C)C(=O)[C@H]([C@@H](C)O)NC(=O)[C@H](CC(C)C)N(C)C(=O)[C@H](C(C)C)NC(=O)[C@H](Cc2ccccc2)N(C)C(=O)CN(C)C(=O)C[C@@H](C(=O)N2CCCCC2)NC(=O)[C@H](CC(C)C)N(C)C1=O` (stereo partly drawn) [pd305] ([Sar][NMeF]V[NMeL]T[Sar][NMeF][NMeL][ξS](Isopentyl)[NMeL]D-Piperidide; lactam N-11), the Papp A→B at 180 min was found to be 2.3 ×10⁻⁶ cm/s.
As to `CC[C@H]1C(=O)N[C@@H]([C@@H](C)O)C(=O)N(C)CC(=O)N(C)[C@@H](COCCC(C)C)C(=O)N[C@@H](CC(C)C)C(=O)N(C)[C@@H](Cc2ccccc2)C(=O)N(C)[C@@H](CC(C)C)C(=O)N[C@H](C(=O)N2CCCCC2)CC(=O)N[C@H](C(C)C)C(=O)N(C)[C@@H](Cc2ccccc2)C(=O)N[C@@H](CC(C)C)C(=O)N1C` [pd306] ([dV][NMeF]L[NMeAbu]T[Sar][NMeS](Isopentyl)L[NMeF][NMeL]D-Piperidide; lactam N-11), the Papp A→B at 180 min is 1.2 ×10⁻⁶ cm/s.
The compound `CC[C@@H]1NC(=O)[C@H](Cc2ccccc2)N(C)C(=O)[C@H](COCCC(C)C)N(C)C(=O)[C@H](CC(C)C)NC(=O)[C@H](C)N(C)C(=O)C[C@@H](C(=O)N2CCCCC2)NC(=O)[C@H](CC(C)C)N(C)C(=O)CN(C)C(=O)[C@H]([C@@H](C)O)NC(=O)[C@H](CC(C)C)N(C)C(=O)[C@H](Cc2ccccc2)N(C)C1=O` [pd307] ([NMeA]L[NMeS](Isopentyl)[NMeF][Abu][NMeF][NMeL]T[Sar][NMeL]D-Piperidide; lactam N-11) gave a Papp A→B at 180 min of 2.9 ×10⁻⁶ cm/s.
On to `CC(C)C[C@H]1C(=O)N(C)[C@@H](Cc2ccccc2)C(=O)N[C@@H](COC(C)(C)C)C(=O)N(C)[C@@H](C)C(=O)N[C@H](C(=O)N2CCCCC2)CC(=O)N(C)[C@@H](C)C(=O)N(C)[C@@H](Cc2ccccc2)C(=O)N[C@@H](CCc2ccccc2)C(=O)N(C)[C@@H](CC(C)C)C(=O)N[C@@H]([C@@H](C)O)C(=O)N(C)CC(=O)N1C` [pd310] ([NMeA][NMeF][hPhe][NMeL]T[Sar][NMeL][NMeF]S(tBu)[NMeA]D-Piperidide; lactam N-11), for which the Papp A→B at 180 min amounted to 1.6 ×10⁻⁶ cm/s.

The same data set, now with this note: human, Caco-2, Caco-2 (cm/sec).
`CC(C)C[C@H]1C(=O)N(C)[C@@H](Cc2ccccc2)C(=O)N(C)[C@@H](CC(C)C)C(=O)N[C@H](C(=O)N(C)[C@@H](Cc2ccccc2)C(=O)N[C@@H](Cc2ccccc2)C(=O)N2CCCCC2)CC(=O)N[C@@H](C(C)C)C(=O)N[C@@H](C)C(=O)N[C@@H]([C@@H](C)O)C(=O)N(C)[C@@H](C)C(=O)N[C@@H](Cc2ccccc2)C(=O)N1C` [pd241] (VAT[NMeA]F[NMeL][NMeF][NMeL]D[NMeF]F-Piperidide; lactam N-9) came in with a Papp A→B at 180 min of 0.058 ×10⁻⁶ cm/s.
Same read-out and setting: for `CC[C@H](C)[C@@H]1NC(=O)[C@H](Cc2ccccc2)N(C)C(=O)[C@H]([C@@H](C)O)NC(=O)[C@@H](C)NC(=O)C[C@@H](C(=O)N(C)[C@@H](Cc2ccccc2)C(=O)N(C)[C@@H](Cc2ccccc2)C(=O)N[C@@H](C)C(=O)N2CCCCC2)NC(=O)[C@H](CC(C)C)N(C)C(=O)[C@H](CC(C)C)N(C)C(=O)[C@H](Cc2ccccc2)N(C)C(=O)[C@H](CC(C)C)N(C)C(=O)[C@H](C)N(C)C1=O` [pd242] ([dA]T[NMeF]I[NMeA][NMeL][NMeF][NMeL][NMeL]D[NMeF][NMeF]A-Piperidide; lactam N-10) the value was 0.058 ×10⁻⁶ cm/s.
`CC(C)C[C@@H]1NC(=O)[C@H](Cc2ccccc2)N(C)C(=O)[C@H](COC(C)(C)C)NC(=O)[C@H](Cc2ccccc2)N(C)C(=O)[C@H](Cc2ccccc2)N(C)C(=O)[C@H](CC(C)C)N(C)C(=O)[C@@H](CC(C)C)NC(=O)C[C@@H](C(=O)N2CCCCC2)NC(=O)[C@H](Cc2ccccc2)N(C)C(=O)[C@H]([C@@H](C)O)NC(=O)[C@H](CC(C)C)N(C)C1=O` [pd243] ([dL][NMeL][NMeF][NMeF]S(tBu)[NMeF]L[NMeL]T[NMeF]D-Piperidide; lactam N-11) yielded a Papp A→B at 180 min of 0.057 ×10⁻⁶ cm/s.
Same read-out and setting: for `CC(C)C[C@@H]1NC(=O)[C@H](Cc2ccccc2)N(C)C(=O)[C@H](CC(C)C)N(C)C(=O)[C@H](Cc2ccccc2)NC(=O)[C@@H](C)NC(=O)C[C@@H](C(=O)N2CCCCC2)NC(=O)[C@H](Cc2ccccc2)N(C)C(=O)CN(C)C(=O)[C@H](Cc2ccccc2)NC(=O)[C@H](CC(C)C)N(C)C(=O)[C@H]([C@@H](C)O)NC1=O` [pd244] ([dA]F[NMeL][NMeF]LT[NMeL]F[Sar][NMeF]D-Piperidide; lactam N-11) the value was 0.045 ×10⁻⁶ cm/s.
Consider `CC(C)C[C@@H]1NC(=O)[C@H]([C@@H](C)O)NC(=O)[C@H](CC(C)C)N(C)C(=O)C[C@@H](C(=O)N2CCCCC2)NC(=O)[C@H](COC(C)(C)C)NC(=O)[C@H](Cc2ccccc2)NC(=O)[C@H](C)N(C)C(=O)[C@H](Cc2ccccc2)NC(=O)CN(C)C(=O)[C@H](Cc2ccccc2)N(C)C(=O)[C@H](Cc2ccccc2)N(C)C1=O` [pd245] ([NMeL]TL[NMeF][NMeF][Sar]F[NMeA]FS(tBu)D-Piperidide; lactam N-11), for which the Papp A→B at 180 min was 0.019 ×10⁻⁶ cm/s.
On to `CC(C)C[C@@H]1NC(=O)CN(C)C(=O)[C@H](Cc2ccccc2)N(C)C(=O)[C@@H](C)NC(=O)C[C@@H](C(=O)N2CCCCC2)NC(=O)[C@H](Cc2ccccc2)N(C)C(=O)[C@H](Cc2ccccc2)N(C)C(=O)[C@H](COC(C)(C)C)NC(=O)[C@H](CC(C)C)N(C)C(=O)[C@H](Cc2ccccc2)NC(=O)[C@H]([C@@H](C)O)NC1=O` [pd246] ([dA][NMeF][Sar]LTF[NMeL]S(tBu)[NMeF][NMeF]D-Piperidide; lactam N-11), for which the Papp A→B at 180 min was 0.014 ×10⁻⁶ cm/s.
In turn, `CC(C)C[C@H]1C(=O)NCC(=O)N[C@H](C(=O)N(C)[C@@H](Cc2ccccc2)C(=O)N(C)[C@@H](Cc2ccccc2)C(=O)N[C@@H](C)C(=O)N2CCCCC2)CC(=O)N[C@@H](C)C(=O)N[C@@H]([C@@H](C)O)C(=O)N(C)[C@@H](C)C(=O)N(C)[C@@H](Cc2ccccc2)C(=O)N[C@@H](C(C)C)C(=O)N(C)[C@@H](Cc2ccccc2)C(=O)N1C` [pd247] (AT[NMeA][NMeF]V[NMeF][NMeL]GD[NMeF][NMeF]A-Piperidide; lactam N-9) gave a Papp A→B at 180 min of 0.087 ×10⁻⁶ cm/s.

Staying with this data set, now noted: human; Papp, Caco-2 membrane permeability, improved method; read-out: Caco-2.
For the compound `CC(C)CCOC[C@H]1C(=O)N[C@@H]([C@@H](C)O)C(=O)N(C)CC(=O)N(C)[C@@H](CC(C)C)C(=O)N[C@H](C(=O)N2CCCCC2)CC(=O)N(C)[C@@H](C)C(=O)N[C@@H](CC(C)C)C(=O)N(C)[C@@H](CC(C)C)C(=O)N(C)[C@@H](Cc2ccccc2)C(=O)N[C@@H](CC(C)C)C(=O)N(C)[C@@H](Cc2ccccc2)C(=O)N1C` [pd308] ([NMeA]L[NMeL][NMeF]L[NMeF][NMeS](Isopentyl)T[Sar][NMeL]D-Piperidide; lactam N-11), the Papp A→B at 180 min came to 2.1 ×10⁻⁶ cm/s.

Source of the values: patent US20200131669A1, “CYCLIC PEPTIDE COMPOUND HAVING HIGH MEMBRANE PERMEABILITY, AND LIBRARY CONTAINING SAME” (Chugai Seiyaku Kabushiki Kaisha, priority 2017, published 2020).
